Legend:
Population PK analysis = type: in vivo, human; conditions: for V1, final model estimate (RSE%): apparent volume of the central compartment; for V2, final model estimate (RSE%): apparent volume of the peripheral compartment; for BSV in V1, final model CV% (shrink) / BSV in V2, final model CV% (shrink): between-subject variability; for Q, final model estimate (RSE%): intercompartmental clearance; for CL, final model estimate (RSE%): population PK, healthy volunteers and patients, i.v. infusion; for Covariate on CL: CrCL (power), final model estimate (RSE%): power relationship centered on the median; for Proportional Error, final model CV% (shrink): residual variability
[1] = imipenem monotherapy, in vivo animal models; cited from earlier work
[2] = patients; cited from earlier work
[3] = Simulation of upper and lower clinical bounds of exposure; set-up: species or system human
[4] = test system: Pseudomonas aeruginosa and Enterobacteriaceae; conditions: HF model; cited from earlier work
[5] = 625 mg q6h for 7 days, healthy adult volunteers; cited from earlier work

C[C@@H](O)[C@H]1C(=O)N2C(C(=O)O)=C(SCCN=CN)C[C@H]12 [imipenem]
V1, final model estimate (RSE%) (Population PK analysis): 15.83 (3.2) L | V2, final model estimate (RSE%) (Population PK analysis): 5.84 (4.0) L | BSV in V1, final model CV% (shrink) (Population PK analysis): 74.4 (7.4) CV% | BSV in V2, final model CV% (shrink) (Population PK analysis): 35.0 (52.9) CV% | Covariate on CL: WT (power), final model estimate (RSE%) (Population PK analysis; body weight): 0.33 (30.5) | Covariate on V1: WT (power), final model estimate (RSE%) (Population PK analysis; body weight): 0.74 (19.1) | BSV in V1, bootstrap CV% (Population PK analysis; bootstrap n = 1,000): 74.2 CV% | BSV in V2, bootstrap CV% (Population PK analysis; bootstrap n = 1,000): 34.8 CV% | CL, bootstrap estimate (RSE%) (Population PK analysis; bootstrap n = 1,000): 12.53 (2.0) L/hour | Covariate on CL: CrCL (power), bootstrap estimate (RSE%) (Population PK analysis; bootstrap n = 1,000): 0.46 (8.0) | Covariate on CL: WT (power), bootstrap estimate (RSE%) (Population PK analysis; bootstrap n = 1,000): 0.34 (32.2) | Covariate on V1: Healthy, bootstrap estimate (RSE%) (Population PK analysis; bootstrap n = 1,000): −0.28 (10.0) | Covariate on V1: WT (power), bootstrap estimate (RSE%) (Population PK analysis; bootstrap n = 1,000): 0.76 (21.6) | Proportional Error, bootstrap CV% (Population PK analysis; bootstrap n = 1,000): 16.1 CV% | Q, bootstrap estimate (RSE%) (Population PK analysis; bootstrap n = 1,000): 11.15 (6.7) L/hour | V1, bootstrap estimate (RSE%) (Population PK analysis; bootstrap n = 1,000): 15.76 (3.4) L | V2, bootstrap estimate (RSE%) (Population PK analysis; bootstrap n = 1,000): 5.86 (3.9) L | Q, final model estimate (RSE%) (Population PK analysis): 11.09 (6.5) L/hour | CL, final model estimate (RSE%) (Population PK analysis): 12.53 (2.0) L/hour | Covariate on CL: CrCL (power), final model estimate (RSE%) (Population PK analysis): 0.46 (8.1) | Covariate on V1: Healthy, final model estimate (RSE%) (Population PK analysis; proportional change, healthy volunteers vs patients): −0.29 (9.5) | Proportional Error, final model CV% (shrink) (Population PK analysis): 16.1 (19.0) CV% | fT > MIC required to achieve 1-log kill to 2-log kill [1]: ~ 30% | concentration lower in peritoneal fluid than in plasma, on average [2]: 25%

O=C(NC1CCNCC1)[C@@H]1CC[C@@H]2CN1C(=O)N2OS(=O)(=O)O [relebactam]
V1, final model estimate (RSE%) (Population PK analysis): 11.08 (2.9) L | V2, final model estimate (RSE%) (Population PK analysis): 6.41 (3.8) L | BSV in V1, final model CV% (shrink) (Population PK analysis): 59.5 (18.8) CV% | BSV in V2, final model CV% (shrink) (Population PK analysis): 41.1 (49.8) CV% | Covariate on V1: WT (power), final model estimate (RSE%) (Population PK analysis; body weight): 0.70 (15.8) | BSV in V1, bootstrap CV% (Population PK analysis; bootstrap n = 1,000): 59.4 CV% | BSV in V2, bootstrap CV% (Population PK analysis; bootstrap n = 1,000): 41.0 CV% | CL, bootstrap estimate (RSE%) (Population PK analysis; bootstrap n = 1,000): 7.02 (2.0) L/hour | Covariate on CL: CrCL (power), bootstrap estimate (RSE%) (Population PK analysis; bootstrap n = 1,000): 0.75 (8.3) | Covariate on V1: WT (power), bootstrap estimate (RSE%) (Population PK analysis; bootstrap n = 1,000): 0.72 (17.9) | Proportional Error, bootstrap CV% (Population PK analysis; bootstrap n = 1,000): 15.3 CV% | Q, bootstrap estimate (RSE%) (Population PK analysis; bootstrap n = 1,000): 10.48 (7.0) L/hour | V1, bootstrap estimate (RSE%) (Population PK analysis; bootstrap n = 1,000): 11.06 (2.9) L | V2, bootstrap estimate (RSE%) (Population PK analysis; bootstrap n = 1,000): 6.43 (3.6) L | Q, final model estimate (RSE%) (Population PK analysis): 10.45 (6.8) L/hour | CL, final model estimate (RSE%) (Population PK analysis): 7.02 (2.0) L/hour | Covariate on CL: CrCL (power), final model estimate (RSE%) (Population PK analysis): 0.75 (8.3) | Proportional Error, final model CV% (shrink) (Population PK analysis): 15.3 (14.1) CV% | AUC0-24 hours target [3]: 76.9 µM·h | fAUC0-24 hours/MIC required to achieve 2-log kill [4]: ≥ 7.5 | safety and tolerability [5]: safe and well tolerated

Source: article PMC6813166 (CPT: Pharmacometrics & Systems Pharmacology, 2019)
